Measurements taken from patent US7615560B2, “Thienopyrimidines as cooling agents” (Conopco, Inc., priority 2004, dated 2009).

Target: T1, human TRPM8 channel (Homo sapiens, UniProt Q7Z2W7)
T1 construct: The open reading frame of human cDNA TRPM8 from position 41-3355bp was amplified; expressed in transfected cells
Assay: Intracellular calcium (fluo-4 fluorescence) assay in HEK 293 cells stably expressing human TRPM8
Assay type: cell-based
Conditions: fluo-4 calcium fluorescence, concentration producing one-half of maximal response (DFmax)
Source text: Humans can detect changes in temperature from noxious cold (<8 C) to noxious heat (>52 C) due to activation of sensory nerve fibers. “The principal temperature sensors in the sensory nerve fibers are members of a family of transient receptor potential (TRP) cation channels” (Voets et al., 2004). In humans the sensation of cooling is elicited by activation of channel TRPM8, which is activated at temperatures below 28 C (Voets et al., 2004). Furthermore human TRPM8 is activated by compounds such as menthol (Brauchi et al., Proc. Natl. Acad. Sci. USA, 2004, Oct. 26; 101 (43):15494-9; Voets et al., Nature, 2004, 430 (7001): 748-54). […]
The open reading frame of human cDNA TRPM8 from position 41-3355bp was amplified from a human prostate cDNA library (Stratagene) using primers […] and […] as previously described previously (Tsavalier et al., 2001). […]
Cells stably expressing the human TRPM8 were seeded in a 96 well plate (coated with polylysine) at a density of 10^5 cells /well in 200 μl of media. […] The dye was then removed and the cells were incubated in a Tyrodes buffer (containing 1 mM probenicide, pH 7.4) pre-equilibrated at a certain temperature (i.e 37° C.) and the intracellular calcium levels were monitored at the same temperature, using the Novostar plate reader. The cells in each well were illuminated at 480 nm, and the fluorescent light emitted at 510 nm was measured. […]

T1 sequence (Q7Z2W7 whole entry): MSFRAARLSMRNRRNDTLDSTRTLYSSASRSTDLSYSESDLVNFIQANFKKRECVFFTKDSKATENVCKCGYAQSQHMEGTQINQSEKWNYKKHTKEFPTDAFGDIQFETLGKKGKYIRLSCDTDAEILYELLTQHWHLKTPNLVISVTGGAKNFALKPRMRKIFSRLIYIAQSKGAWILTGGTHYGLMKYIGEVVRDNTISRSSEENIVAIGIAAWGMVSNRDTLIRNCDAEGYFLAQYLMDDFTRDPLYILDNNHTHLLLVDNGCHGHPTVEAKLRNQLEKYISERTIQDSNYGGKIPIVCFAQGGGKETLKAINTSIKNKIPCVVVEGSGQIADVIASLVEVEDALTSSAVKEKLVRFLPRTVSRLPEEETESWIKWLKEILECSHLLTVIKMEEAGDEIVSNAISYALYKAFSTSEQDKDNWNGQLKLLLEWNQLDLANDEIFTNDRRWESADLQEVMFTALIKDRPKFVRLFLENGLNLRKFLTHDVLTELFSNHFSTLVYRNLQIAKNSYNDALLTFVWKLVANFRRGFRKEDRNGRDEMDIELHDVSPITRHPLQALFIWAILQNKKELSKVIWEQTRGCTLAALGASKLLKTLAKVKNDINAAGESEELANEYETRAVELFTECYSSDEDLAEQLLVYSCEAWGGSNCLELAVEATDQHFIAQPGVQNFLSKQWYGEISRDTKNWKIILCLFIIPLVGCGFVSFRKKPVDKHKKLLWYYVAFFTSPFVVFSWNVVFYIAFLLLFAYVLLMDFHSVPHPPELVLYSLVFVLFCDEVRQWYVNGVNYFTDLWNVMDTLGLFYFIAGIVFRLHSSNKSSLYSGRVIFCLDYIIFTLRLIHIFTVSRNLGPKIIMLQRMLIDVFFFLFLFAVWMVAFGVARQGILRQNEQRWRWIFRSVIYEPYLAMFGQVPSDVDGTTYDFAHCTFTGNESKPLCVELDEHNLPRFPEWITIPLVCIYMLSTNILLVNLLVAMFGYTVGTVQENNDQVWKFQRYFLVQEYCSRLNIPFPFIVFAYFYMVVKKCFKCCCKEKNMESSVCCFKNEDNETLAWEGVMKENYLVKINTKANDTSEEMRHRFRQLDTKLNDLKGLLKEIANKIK

CCCn1cnc2sc3c(c2c1=N)CCCC3 [Example 1, 3-propyl-5,6,7,8-tetrahydro-3H-benzo[4,5]-thieno[2,3-d]pyrimidin-4-ylidene amine]
EC50: 6.5 µM
